# Reference: patent US4260603A, “Sterol glycoside with activity as prostaglandin synthetase inhibitor” (priority 1979, dated 1981)
# Tests used:
# [1] = system: arthritis of rats caused by erysipeloid (strain T 28); test: Erysipeloid arthritis of rats, evaluation of aorta thrombes; assay type: in vivo, Male wistar rats; details: 5 mg/kg i.p., 5 times per week from infection day; comparison group 2.80
# Source text: When comparing arthritis based on experimental erysipeloid of for example rats with human rheumatic arthritis an extensive correspondence of the morphological changes can be observed. The tests had been made according to the publication of Schulz et al. Beitr. Path. 154, 1-26, 27-51 (1975). The arthritis of rats caused by erysipeloid can be reproduced with nearly 100 percent effectiveness with a single injection. In case of arthritis caused by erysipeloid always more than 6 joints of the limbs are transformed, namely big and small joints of the limbs in the same manner.
# In the test of the compounds the following parameters of the manifestation phase had been used for estimating the activity of the compound.
# With rats fibrine-rich thrombes occur about 6th to 11th day of the intima of the aorta. The largest space covered is about 8th day.
# Male wistar rats with a body weight of 150 to 180 g were used for the tests. The animals had been kept in single cages and got a rat standard diet (Ssniff R) and water ad libitum.
# The infection was carried out with the erysipeloid strain T 28. The dosage was 2 ml s.c. (about 100-200 millions germs). The compounds to be tested had been suspended in sterile saline solution and had been injected i.p. in a dosage of 5 mg/kg body weight. The treatment was 5 times per week from infection day to end of test or death of animal.
# physchem = assay type: physicochemical; details: water
# Source text: According to the described process there can also be produced solutions of other sterol disaccharides. […] This solubility is above the preferred individual doses employed of the compounds.
# [2] = Acute toxicity by oral administration; assay type: in vivo, rate, mice rabbits, dogs and primates; details: doses of 1 to 2 grams/kg of body weight
# [3] = Toxicity on administration over a long period of time; assay type: in vivo, rate, mice rabbits, dogs and primates; details: daily doses of 100 to 200 mg/kg of body weight over a long period of time
Structure (SMILES),evaluation of aorta thrombes (value) [1],solubility (physchem) [µg/mL],acute toxicity [2],tolerance [3]
"C[C@@H]1CC[C@@]2(OC1)O[C@H]1C[C@H]3[C@@H]4CC=C5C[C@@H](O[C@@H]6O[C@H](CO)[C@@H](O)[C@H](O)[C@H]6O)CC[C@]5(C)[C@H]4CC[C@]3(C)[C@H]1[C@@H]2C [diosgeninglucoside, diosgenin-3-β-D-Glucoside]",1.33,–,–,–
"C[C@@H]1CC[C@@]2(OC1)O[C@H]1C[C@H]3[C@@H]4CC[C@H]5C[C@@H](O[C@@H]6O[C@H](CO)[C@@H](O)[C@H](O)[C@H]6O)CC[C@]5(C)[C@H]4CC(=O)[C@]3(C)[C@H]1[C@@H]2C [hecogeninglucoside, hecogenin β-D-glucoside]",1.38,–,–,–
CC[C@H](CC[C@@H](C)[C@H]1CC[C@H]2[C@@H]3CC=C4C[C@@H](O[C@@H]5O[C@H](CO)[C@@H](O[C@@H]6O[C@H](CO)[C@H](O)[C@H](O)[C@H]6O)[C@H](O)[C@H]5O)CC[C@]4(C)[C@H]3CC[C@]12C)C(C)C [β-D-lactoside of sitosterol],–,210,–,–
CC[C@H](CC[C@@H](C)[C@H]1CC[C@H]2[C@@H]3CC=C4C[C@@H](O[C@@H]5O[C@H](CO)[C@@H](O[C@@H]6O[C@H](CO)[C@@H](O)[C@H](O)[C@H]6O)[C@H](O)[C@H]5O)CC[C@]4(C)[C@H]3CC[C@]12C)C(C)C [β-D-cellobioside of sitosterol],–,750,–,–
"CC[C@H](CC[C@@H](C)[C@H]1CC[C@H]2[C@@H]3CC=C4C[C@@H](O[C@@H]5O[C@H](CO)[C@@H](O)[C@H](O)[C@H]5O)CC[C@]4(C)[C@H]3CC[C@]12C)C(C)C [sitosterol-β-D-glucoside, Sitosterol-β-D-Glucoside]",2.00,–,no toxic effects,good
